Values quoted from earlier work as cited in patent US20210349074A1, “METHOD OF TESTING TEARS AS A BIOMARKER FOR CANNABINOIDS” (priority 2020, published 2021).

Details: during the first two hours after using cannabis

Question: Which “average drop of participants' THC blood levels” value does the source give for `CCCCCc1cc(O)c2c(c1)OC(C)(C)[C@@H]1CCC(C)=C[C@@H]21` [THC, Δ9-tetrahydrocannabinol] here?
Answer: 5 ng/mL
